Literature values in paper PMC12299890 (Pharmaceuticals, 2025).
Like-named read-outs stand apart in the source and are kept apart here.

Set-up: method as in PMID 27121673
Conditions: cited from earlier work

O[C@H]1[C@H](O)[C@@H](O)[C@H](O)[C@@H](O)[C@@H]1O [SCI, scyllo-inositol]
Time of maximum plasma concentration (after the last dose, 2000 mg two times a day for 10 days): 2.9 h
AUC of SCI in CSF (day 1, oral 2000 mg two times a day): 49.4 µg·h/mL
AUC of SCI in CSF (day 11, oral 2000 mg two times a day): 153.0 µg·h/mL
Increase of brain concentration of SCI during the study (oral 2000 mg two times a day for 10 days): 58–76%
Side effects reported (oral 2000 mg two times a day): No side effects
Time of peak SCI plasma concentration (plasma, after first oral dose of 2000 mg twice a day): 3.8 h
